Laboratory results published in publication PMC4894499 (Journal of pharmaceutical sciences, 2016).

Tests used:
[1] = Bile acid toxicity: LDH release in human SCH; format: cell-based; details: human, sandwich-cultured hepatocytes (SCH)
[2] = Bile acid toxicity: intracellular ATP; format: cell-based, rat; details: rat, sandwich-cultured hepatocytes (SCH)
[3] = Bile acid toxicity: intracellular ATP; format: cell-based, human; details: human, sandwich-cultured hepatocytes (SCH)
[4] = Bile acid toxicity: LDH release in rat SCH; format: cell-based; details: rat, sandwich-cultured hepatocytes (SCH)
human SCH [5] = assay: Intracellular bile acid concentrations by LC-MS/MS in human SCH; format: in vitro ADME; details: LCA-treated SCH
human SCH [6] = assay: Bile acid toxicity: LDH release in human SCH; format: cell-based; details: human SCH, 0 – 0.2 mM LCA, 6, 12, 24 hr
rat SCH [7] = assay: Bile acid toxicity: intracellular ATP; format: cell-based; details: rat SCH, 0 – 0.2 mM LCA, 6, 12, 24 hr
human SCH [8] = assay: Bile acid toxicity: intracellular ATP; format: cell-based; details: human SCH, 0 – 0.2 mM LCA, 6, 12, 24 hr
rat SCH [9] = assay: Bile acid toxicity: LDH release in rat SCH; format: cell-based; details: rat SCH, 0 – 0.2 mM LCA, 6, 12, 24 hr
rat SCH [10] = system: rat SCH
human SCH [11] = details: cited from earlier work
rat SCH [12] = details: cited from earlier work
human SCH [13] = details: cited from earlier work; for Effect on total (cell + bile) and cellular accumulation of TCA: concentration-dependent
human SCH [14] = details: fold greater; cited from earlier work
human SCH [15] = details: cited from earlier work; remark: listed apart in the source
rat SCH [16] = details: cited from earlier work; remark: listed apart in the source
P-gp = details: human SCH, treatment for 3 days; cited from earlier work
CYP3A4 and UGT1A1 = details: human SCH; cited from earlier work
human SCH [17] = details: cited from earlier work; remark: listed apart in the source

SMILES: C[C@H](CCC(=O)O)[C@H]1CC[C@H]2[C@@H]3[C@H](O)C[C@@H]4C[C@H](O)CC[C@]4(C)[C@H]3CC[C@]12C [CDCA, chenodeoxycholic acid]
- CC50 at 24 h [1]: 972 µM
- CC50 at 24 h [2]: 351 µM
- CC50 at 24 h [3]: 568 µM
- CC50 at 24 h [4]: 243 µM

SMILES: C[C@H](CCC(=O)NCC(=O)O)[C@H]1CC[C@H]2[C@@H]3CC[C@@H]4C[C@H](O)CC[C@]4(C)[C@H]3CC[C@]12C [GLCA, glycolithocholic acid]
- Intracellular concentration in human SCH compared with rat SCH (human SCH [5]): comparable

SMILES: C[C@H](CCC(=O)O)[C@H]1CC[C@H]2[C@@H]3CC[C@@H]4C[C@H](O)CC[C@]4(C)[C@H]3CC[C@]12C [LCA, lithocholic acid]
- LDH leakage (human SCH [6]): minimal
- CC50 at 24 h [2]: 147 µM
- Effect on cellular ATP (rat SCH [7]): concentration-dependent decrease
- Intracellular concentration in human SCH compared with rat SCH (human SCH [5]): comparable
- CC50 at 24 h [3]: 155 µM
- Effect on cellular ATP (human SCH [8]): delayed decrease
- CC50 at 24 h [4]: 146 µM
- LDH leakage (rat SCH [9]): increase

SMILES: C[C@H](CCC(=O)NCCS(=O)(=O)O)[C@H]1CC[C@H]2[C@@H]3[C@H](O)C[C@@H]4C[C@H](O)CC[C@]4(C)[C@H]3CC[C@]12C [TCDCA, taurochenodeoxycholic acid]
- Cellular concentration relative to CDCA, fold lower (rat SCH [10]): ~ 100 fold

SMILES: Cc1c(C)c2c(c(C)c1O)CCC(C)(COc1ccc(CC3SC(=O)NC3=O)cc1)O2 (stereo not shown) [TGZ, troglitazone]
- Effect on canalicular efflux of TCA (human SCH [11]): significantly reduced
- Effect on CDCA accumulation in hepatocytes (rat SCH [12]): increased
- Effect on cellular accumulation of TCA (rat SCH [12]): decreased

SMILES: C[C@H](CCC(=O)NCCS(=O)(=O)O)[C@H]1CC[C@H]2[C@@H]3CC[C@@H]4C[C@H](O)CC[C@]4(C)[C@H]3CC[C@]12C [TLCA, taurolithocholic acid]
- Intracellular concentration in human SCH relative to rat SCH, fold lower (human SCH [5]): ~ 100 fold

SMILES: COC(c1ccccc1)(c1ccccc1)[C@H](Oc1nc(C)cc(C)n1)C(=O)O [ambrisentan]
- Effect on BEI and apparent biliary clearance of TCA (TCA biliary excretion) (human SCH [13]): minimal inhibitory effects
- Hepatocyte concentration relative to medium concentration (human SCH [14]): 2 fold

SMILES: COC(=O)N[C@H](C(=O)N[C@@H](Cc1ccccc1)[C@@H](O)CN(Cc1ccc(-c2ccccn2)cc1)NC(=O)[C@@H](NC(=O)OC)C(C)(C)C)C(C)(C)C [atazanavir]
- Effect on CGamF accumulation (human SCH [15]): potently inhibited

SMILES: COc1ccccc1Oc1c(NS(=O)(=O)c2ccc(C(C)(C)C)cc2)nc(-c2ncccn2)nc1OCCO [bosentan]
- Effect on BEI and apparent biliary clearance of TCA (TCA biliary excretion) (human SCH [13]): significantly decreased
- Effect on sodium-dependent TCA uptake (human SCH [13]): significantly inhibited
- Effect on total (cell + bile) and cellular accumulation of TCA (human SCH [13]): significantly decreased
- Hepatocyte concentration relative to medium concentration (human SCH [14]): 20 fold

SMILES: CCCC1O[C@@H]2C[C@H]3[C@@H]4CCC5=CC(=O)C=C[C@]5(C)[C@H]4[C@@H](O)C[C@]3(C)[C@]2(C(=O)CO)O1 (stereo partly shown) [budesonide]
- Effect on canalicular efflux of TCA (human SCH [11]): minimal effects

SMILES: CC(C)CN(C[C@@H](O)[C@H](Cc1ccccc1)NC(=O)O[C@H]1CO[C@H]2OCC[C@H]21)S(=O)(=O)c1ccc(N)cc1 [darunavir]
- Effect on CGamF accumulation (human SCH [15]): potently inhibited

SMILES: COc1ccc(Cl)cc1C(=O)NCCc1ccc(S(=O)(=O)NC(=O)NC2CCCCC2)cc1 [glyburide]
- Effect on canalicular efflux of TCA (human SCH [11]): minimal effects

SMILES: CC(C)(C)NC(=O)[C@@H]1CN(Cc2cccnc2)CCN1C[C@@H](O)C[C@@H](Cc1ccccc1)C(=O)N[C@H]1c2ccccc2C[C@H]1O [indivanir]
- Effect on CGamF accumulation (human SCH [15]): potently inhibited

SMILES: COC(=O)C1=C(C)NC(C)=C(C(=O)OC(C)C)C1c1cccc2nonc12 (stereo not shown) [isradipine]
- Effect on canalicular efflux of TCA (human SCH [11]): minimal effects

SMILES: Cc1cccc(C)c1OCC(=O)N[C@@H](Cc1ccccc1)[C@@H](O)C[C@H](Cc1ccccc1)NC(=O)[C@H](C(C)C)N1CCCNC1=O [lopinavir]
- Effect on TCA biliary excretion (BEI and CLb, app, in vitro) (rat SCH [16]): significantly reduced
- Effect on intracellular accumulation of TCA (rat SCH [16]): increased

SMILES: CCCNS(=O)(=O)Nc1ncnc(OCCOc2ncc(Br)cn2)c1-c1ccc(Br)cc1 [macitentan]
- Effect on BEI and apparent biliary clearance of TCA (TCA biliary excretion) (human SCH [13]): significantly decreased
- Effect on total (cell + bile) and cellular accumulation of TCA (human SCH [13]): significantly decreased
- Hepatocyte concentration relative to medium concentration (human SCH [14]): about 100 fold

SMILES: CC#C[C@]1(O)CC[C@H]2[C@@H]3CCC4=CC(=O)CCC4=C3[C@@H](c3ccc(N(C)C)cc3)C[C@@]21C [mifepristone]
- Effect on canalicular efflux of TCA (human SCH [11]): minimal effects

SMILES: CO[C@H]1/C=C/O[C@@]2(C)Oc3c(C)c(O)c4c(O)c(c(/C=N/N5CCN(C)CC5)c(O)c4c3C2=O)NC(=O)/C(C)=C\C=C\[C@H](C)[C@H](O)[C@@H](C)[C@@H](O)[C@@H](C)[C@H](OC(C)=O)[C@@H]1C [rifampicin]
- Effect on BEI of digoxin (P-gp): increase

SMILES: CO[C@H]1/C=C/O[C@@]2(C)Oc3c(C)c(O)c4c(O)c(cc(O)c4c3C2=O)NC(=O)/C(C)=C\C=C\[C@H](C)[C@H](O)[C@@H](C)[C@@H](O)[C@@H](C)[C@H](OC(C)=O)[C@@H]1C [rifamycin SV]
- Effect on intracellular accumulation of buprenorphine and midazolam (CYP3A4 and UGT1A1): increased

SMILES: CC(C)c1nc(CN(C)C(=O)N[C@H](C(=O)N[C@@H](Cc2ccccc2)C[C@H](O)[C@H](Cc2ccccc2)NC(=O)OCc2cncs2)C(C)C)cs1 [ritonavir]
- Effect on canalicular efflux of TCA (human SCH [11]): significantly reduced
- Effect on 99mTc–mebrofenin uptake (human SCH [17]): decreased
- Effect on BEI of 99mTc–mebrofenin (human SCH [17]): without changing
- Effect on TCA biliary excretion (BEI and CLb, app, in vitro) (rat SCH [16]): significantly reduced
- Effect on intracellular accumulation of TCA (rat SCH [16]): increased

SMILES: CN(CCOc1ccc(CC2SC(=O)NC2=O)cc1)c1ccccn1 (stereo not shown) [rosiglitazone]
- Effect on canalicular efflux of TCA (human SCH [11]): significantly reduced

SMILES: Cc1cc2c(cc1CC(=O)c1sccc1S(=O)(=O)Nc1onc(C)c1Cl)OCO2 [sitaxsentan]
- Effect on sodium-dependent TCA uptake (human SCH [13]): significantly inhibited
- Hepatocyte concentration relative to medium concentration (human SCH [14]): 40 fold
